In patent US8084649B2, “Herbicides” (Syngenta Crop Protection, inc., priority 2007, dated 2011):

test system: Echinochloa crus-galli (ECHCG); assay: Post-emergence herbicidal activity, glasshouse pot test; assay type: in vivo; conditions: Echinochloa crus-galli, rate 500 g/ha, evaluated after 14 or 15 days, read-out: Post-emergence activity, ECHCG (100=total damage to plant; 0=no damage to plant)
Summary of the method: (§1)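 Damage rated visually on a 0–100 scale (100 = total damage) 14 or 15 days after spraying. Pots of sterilised standard soil; plants treated post-emergence after 10 days glasshouse cultivation with an aqueous spray from an acetone/Emulsogen EL/N-methylpyrrolidone/dipropylene glycol monomethyl ether/X-77 formulation.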

| Compound | pest or weed control at 500 g/ha [%] |
| --- | --- |
| CCc1cc(C)cc(CC)c1C1=C(O)CC(C(C)(C)SC)CC1=O (stereo not drawn) [Compound T20] | 100 |
| CCc1cc(C)cc(CC)c1C1=C(O)CC(COCCOC)CC1=O (stereo not drawn) [Compound T24] | 100 |
| CCc1cc(C)cc(CC)c1C1=C(O)CC(CC(C)S(C)(=O)=O)CC1=O (stereo not drawn) [Compound T30] | 100 |
| CCCSC(C)CC1CC(=O)C(c2c(C)cc(C)cc2C)=C(O)C1 (stereo not drawn) [Compound T35] | 70 |

test system: Setaria faberi (SETFA); assay: as above; assay type: in vivo; conditions: Setaria faberi, rate 500 g/ha, evaluated after 14 or 15 days, read-out: Post-emergence activity, SETFA (100=total damage to plant; 0=no damage to plant)
Summary of the method: as §1

| Compound | pest or weed control at 500 g/ha [%] |
| --- | --- |
| CCc1cc(C)cc(CC)c1C1=C(O)CC(C(C)(C)SC)CC1=O (stereo not drawn) [Compound T20] | 100 |
| CCc1cc(C)cc(CC)c1C1=C(O)CC(COCCOC)CC1=O (stereo not drawn) [Compound T24] | 100 |
| CCc1cc(C)cc(CC)c1C1=C(O)CC(CC(C)S(C)(=O)=O)CC1=O (stereo not drawn) [Compound T30] | 100 |
| CCCSC(C)CC1CC(=O)C(c2c(C)cc(C)cc2C)=C(O)C1 (stereo not drawn) [Compound T35] | 50 |

test system: Digitaria sanguinalis (DIGSA); assay: as above; assay type: in vivo; conditions: Digitaria sanguinalis, rate 500 g/ha, evaluated after 14 or 15 days, read-out: Post-emergence activity, DIGSA (100=total damage to plant; 0=no damage to plant)
Summary of the method: as §1

| Compound | pest or weed control at 500 g/ha [%] |
| --- | --- |
| CCc1cc(C)cc(CC)c1C1=C(O)CC(C(C)(C)SC)CC1=O (stereo not drawn) [Compound T20] | 100 |
| CCc1cc(C)cc(CC)c1C1=C(O)CC(COCCOC)CC1=O (stereo not drawn) [Compound T24] | 90 |
| CCc1cc(C)cc(CC)c1C1=C(O)CC(CC(C)S(C)(=O)=O)CC1=O (stereo not drawn) [Compound T30] | 100 |
| CCCSC(C)CC1CC(=O)C(c2c(C)cc(C)cc2C)=C(O)C1 (stereo not drawn) [Compound T35] | 70 |

test system: Lolium perenne (LOLPE); assay: as above; assay type: in vivo; conditions: Lolium perenne, rate 500 g/ha, evaluated after 14 or 15 days, read-out: Post-emergence activity, LOLPE (100=total damage to plant; 0=no damage to plant)
Summary of the method: as §1

| Compound | pest or weed control at 500 g/ha [%] |
| --- | --- |
| CCc1cc(C)cc(CC)c1C1=C(O)CC(C(C)(C)SC)CC1=O (stereo not drawn) [Compound T20] | 100 |
| CCc1cc(C)cc(CC)c1C1=C(O)CC(COCCOC)CC1=O (stereo not drawn) [Compound T24] | 90 |
| CCc1cc(C)cc(CC)c1C1=C(O)CC(CC(C)S(C)(=O)=O)CC1=O (stereo not drawn) [Compound T30] | 80 |
| CCCSC(C)CC1CC(=O)C(c2c(C)cc(C)cc2C)=C(O)C1 (stereo not drawn) [Compound T35] | 80 |

test system: Alopecurus myosuroides (ALOMY); assay: as above; assay type: in vivo; conditions: Alopecurus myosuroides, rate 500 g/ha, evaluated after 14 or 15 days, read-out: Post-emergence activity, ALOMY (100=total damage to plant; 0=no damage to plant)
Summary of the method: as §1

| Compound | pest or weed control at 500 g/ha [%] |
| --- | --- |
| CCc1cc(C)cc(CC)c1C1=C(O)CC(C(C)(C)SC)CC1=O (stereo not drawn) [Compound T20] | 100 |
| CCc1cc(C)cc(CC)c1C1=C(O)CC(COCCOC)CC1=O (stereo not drawn) [Compound T24] | 90 |
| CCc1cc(C)cc(CC)c1C1=C(O)CC(CC(C)S(C)(=O)=O)CC1=O (stereo not drawn) [Compound T30] | 70 |
| CCCSC(C)CC1CC(=O)C(c2c(C)cc(C)cc2C)=C(O)C1 (stereo not drawn) [Compound T35] | 90 |

test system: Avena fatua (AVEFA); assay: as above; assay type: in vivo; conditions: Avena fatua, rate 500 g/ha, evaluated after 14 or 15 days, read-out: Post-emergence activity, AVEFA (100=total damage to plant; 0=no damage to plant)
Summary of the method: as §1

| Compound | pest or weed control at 500 g/ha [%] |
| --- | --- |
| CCc1cc(C)cc(CC)c1C1=C(O)CC(C(C)(C)SC)CC1=O (stereo not drawn) [Compound T20] | 100 |
| CCc1cc(C)cc(CC)c1C1=C(O)CC(COCCOC)CC1=O (stereo not drawn) [Compound T24] | 80 |
| CCc1cc(C)cc(CC)c1C1=C(O)CC(CC(C)S(C)(=O)=O)CC1=O (stereo not drawn) [Compound T30] | 90 |
| CCCSC(C)CC1CC(=O)C(c2c(C)cc(C)cc2C)=C(O)C1 (stereo not drawn) [Compound T35] | 70 |

test system: Echinochloa crus-galli (ECHCG); assay: Pre-emergence herbicidal activity, glasshouse pot test; assay type: in vivo; conditions: Echinochloa crus-galli, 480 h, rate 500 g/ha, evaluated after 20 days, read-out: Pre-emergence activity, ECHCG (100=total damage to plant; 0=no damage to plant)
Summary of the method: (§2)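 One day after sowing in sterilised soil, pots receive an aqueous spray made from the compound dissolved in acetone and a formulation of emulsifier, N-methylpyrrolidone, glycol ether and X-77 wetter. Injury is assessed 20 days later against untreated expectations, scored from 0 (no damage) to 100.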

| Compound | pest or weed control at 500 g/ha [%] |
| --- | --- |
| CCc1cc(C)cc(CC)c1C1=C(O)CC(C(C)(C)SC)CC1=O (stereo not drawn) [Compound T20] | 100 |
| CCc1cc(C)cc(CC)c1C1=C(O)CC(COCCOC)CC1=O (stereo not drawn) [Compound T24] | 100 |
| CCc1cc(C)cc(CC)c1C1=C(O)CC(CC(C)S(C)(=O)=O)CC1=O (stereo not drawn) [Compound T30] | 100 |
| CCCSC(C)CC1CC(=O)C(c2c(C)cc(C)cc2C)=C(O)C1 (stereo not drawn) [Compound T35] | 70 |

test system: Setaria faberi (SETFA); assay: as above; assay type: in vivo; conditions: Setaria faberi, 480 h, rate 500 g/ha, evaluated after 20 days, read-out: Pre-emergence activity, SETFA (100=total damage to plant; 0=no damage to plant)
Summary of the method: as §2

| Compound | pest or weed control at 500 g/ha [%] |
| --- | --- |
| CCc1cc(C)cc(CC)c1C1=C(O)CC(C(C)(C)SC)CC1=O (stereo not drawn) [Compound T20] | 100 |
| CCc1cc(C)cc(CC)c1C1=C(O)CC(COCCOC)CC1=O (stereo not drawn) [Compound T24] | 100 |
| CCc1cc(C)cc(CC)c1C1=C(O)CC(CC(C)S(C)(=O)=O)CC1=O (stereo not drawn) [Compound T30] | 100 |
| CCCSC(C)CC1CC(=O)C(c2c(C)cc(C)cc2C)=C(O)C1 (stereo not drawn) [Compound T35] | 80 |

test system: Digitaria sanguinalis (DIGSA); assay: as above; assay type: in vivo; conditions: Digitaria sanguinalis, 480 h, rate 500 g/ha, evaluated after 20 days, read-out: Pre-emergence activity, DIGSA (100=total damage to plant; 0=no damage to plant)
Summary of the method: as §2

| Compound | pest or weed control at 500 g/ha [%] |
| --- | --- |
| CCc1cc(C)cc(CC)c1C1=C(O)CC(C(C)(C)SC)CC1=O (stereo not drawn) [Compound T20] | 100 |
| CCc1cc(C)cc(CC)c1C1=C(O)CC(COCCOC)CC1=O (stereo not drawn) [Compound T24] | 100 |
| CCc1cc(C)cc(CC)c1C1=C(O)CC(CC(C)S(C)(=O)=O)CC1=O (stereo not drawn) [Compound T30] | 100 |
| CCCSC(C)CC1CC(=O)C(c2c(C)cc(C)cc2C)=C(O)C1 (stereo not drawn) [Compound T35] | 90 |

test system: Lolium perenne (LOLPE); assay: as above; assay type: in vivo; conditions: Lolium perenne, 480 h, rate 500 g/ha, evaluated after 20 days, read-out: Pre-emergence activity, LOLPE (100=total damage to plant; 0=no damage to plant)
Summary of the method: as §2

| Compound | pest or weed control at 500 g/ha [%] |
| --- | --- |
| CCc1cc(C)cc(CC)c1C1=C(O)CC(C(C)(C)SC)CC1=O (stereo not drawn) [Compound T20] | 100 |
| CCc1cc(C)cc(CC)c1C1=C(O)CC(COCCOC)CC1=O (stereo not drawn) [Compound T24] | 100 |
| CCc1cc(C)cc(CC)c1C1=C(O)CC(CC(C)S(C)(=O)=O)CC1=O (stereo not drawn) [Compound T30] | 90 |
| CCCSC(C)CC1CC(=O)C(c2c(C)cc(C)cc2C)=C(O)C1 (stereo not drawn) [Compound T35] | 80 |

test system: Alopecurus myosuroides (ALOMY); assay: as above; assay type: in vivo; conditions: Alopecurus myosuroides, 480 h, rate 500 g/ha, evaluated after 20 days, read-out: Pre-emergence activity, ALOMY (100=total damage to plant; 0=no damage to plant)
Summary of the method: as §2

| Compound | pest or weed control at 500 g/ha [%] |
| --- | --- |
| CCc1cc(C)cc(CC)c1C1=C(O)CC(C(C)(C)SC)CC1=O (stereo not drawn) [Compound T20] | 100 |
| CCc1cc(C)cc(CC)c1C1=C(O)CC(COCCOC)CC1=O (stereo not drawn) [Compound T24] | 100 |
| CCc1cc(C)cc(CC)c1C1=C(O)CC(CC(C)S(C)(=O)=O)CC1=O (stereo not drawn) [Compound T30] | 80 |
| CCCSC(C)CC1CC(=O)C(c2c(C)cc(C)cc2C)=C(O)C1 (stereo not drawn) [Compound T35] | 90 |

test system: Avena fatua (AVEFA); assay: as above; assay type: in vivo; conditions: Avena fatua, 480 h, rate 500 g/ha, evaluated after 20 days, read-out: Pre-emergence activity, AVEFA (100=total damage to plant; 0=no damage to plant)
Summary of the method: as §2

| Compound | pest or weed control at 500 g/ha [%] |
| --- | --- |
| CCc1cc(C)cc(CC)c1C1=C(O)CC(C(C)(C)SC)CC1=O (stereo not drawn) [Compound T20] | 100 |
| CCc1cc(C)cc(CC)c1C1=C(O)CC(COCCOC)CC1=O (stereo not drawn) [Compound T24] | 80 |
| CCc1cc(C)cc(CC)c1C1=C(O)CC(CC(C)S(C)(=O)=O)CC1=O (stereo not drawn) [Compound T30] | 80 |
| CCCSC(C)CC1CC(=O)C(c2c(C)cc(C)cc2C)=C(O)C1 (stereo not drawn) [Compound T35] | 80 |
